Assay results reported in patent US9849185B2, “Benzoic acid, benzoic acid derivatives and heteroaryl carboxylic acid conjugates of hydromorphone, prodrugs, methods of making and use thereof” (priority 2011, dated 2017).

Key:
[1] = Tamper resistance study: extraction methods, hydromorphone release by HPLC; conditions: for amount of hydromorphone released from 3,6-di-aspirin-HM: %-AUC by HPLC
Text: Certain prodrug conjugates of the present technology were exposed to various commonly applied “extraction methods” to test for hydrolysis and/or decomposition of the prodrug.

[2] = Intravenous pharmacokinetic study in rats; conditions: rat, 0.20 mg/kg
GI transit = experiment: Validated rat gastrointestinal (GI) motility study; conditions: oral, equimolar dose, result in words
[3] = Intranasal pharmacokinetic study in rats; conditions: rat, equimolar to 2.0 mg/kg hydromorphone
Experimental: The intranasal studies were performed at doses equimolar to 2.0 mg/kg of hydromorphone.

[4] = Oral pharmacokinetic study in rats (released hydromorphone in plasma); conditions: rat; for AUC of hydromorphone released from the conjugate / Cmax of hydromorphone released from the conjugate / Tmax of hydromorphone released from the conjugate: oral solution, dose equimolar to 2.0 mg/kg hydromorphone, plasma
[5] = oral, equimolar to 2.0 mg/kg hydromorphone, result in words

With `CC(=O)Oc1ccccc1C(=O)OC1=CC[C@H]2[C@H]3Cc4ccc(OC(=O)c5ccccc5OC(C)=O)c5c4[C@@]2(CCN3C)[C@H]1O5` [3,6-di-Aspirin-HM, 3,6-di-aspirin-hydromorphone] the “amount of hydromorphone released from 3,6-di-aspirin-HM” value (“amount of hydromorphone released” below) ([1]; 1N HCl, ambient temperature, 30 min.) was 0%, the “amount of hydromorphone released” value ([1]; 1N HCl, ambient temperature, 60 min.) was 0% and the “amount of hydromorphone released” value ([1]; 1N NaOH, ambient temperature, 30 min.) was 1%. For the same compound, the “amount of hydromorphone released” value ([1]; 1N NaOH, ambient temperature, 60 min.) was 1%, the “amount of hydromorphone released” value ([1]; 4N NaOH, ambient temperature, 30 min.) was 1% and the “amount of hydromorphone released” value ([1]; 4N NaOH, ambient temperature, 60 min.) was 6%. The “amount of hydromorphone released” value ([1]; 5% Acetic acid, ambient temperature, 30 min.) was 0%, the “amount of hydromorphone released” value ([1]; 5% Acetic acid, ambient temperature, 60 min.) was 0% and the “amount of hydromorphone released” value ([1]; Glacial acetic acid, ambient temperature, 30 min.) was 0%. The “amount of hydromorphone released” value ([1]; Glacial acetic acid, ambient temperature, 60 min.) was 0%, the “amount of hydromorphone released” value ([1]; Sat. NaHCO3, ambient temperature, 30 min.) was 0% and the “amount of hydromorphone released” value ([1]; Sat. NaHCO3, ambient temperature, 60 min.) was 0%. For the same compound, the “amount of hydromorphone released” value ([1]; Water, ambient temperature, 30 min.) was 0%, the “amount of hydromorphone released” value ([1]; Water, ambient temperature, 60 min.) was 0% and the “chemical stability under commonly applied "extraction methods"” value ([1]; result in words) was “chemically stable”. The “outcome of solvent extraction from formulation” value ([1]; result in words) was “only yielded inactive prodrug”, the “AUC as % of unconjugated hydromorphone” value [2] was 6% and the “Cmax as % of unconjugated hydromorphone” value [2] was 3%. The “plasma concentrations of hydromorphone after intravenous administration compared to unconjugated hydromorphone” value ([2]; result in words) was “significantly lower”, the “reduction of GI transit compared to hydromorphone hydrochloride” value (GI transit) was “reduces GI transit to a lesser extent than hydromorphone hydrochloride” and the “AUC as % of unconjugated hydromorphone” value [3] was 17%. The “Cmax as % of unconjugated hydromorphone” value [3] was 20%, the “plasma concentrations of hydromorphone after intranasal administration compared to the parent drug” value ([3]; result in words) was “significantly reduced” and the “AUC of hydromorphone released from the conjugate” value (from here on “AUC of hydromorphone released”) [4] was 82.4 ng·h/mL. For the same compound, the “Cmax of hydromorphone released from the conjugate” value (“Cmax of hydromorphone released” below) [4] was 36.5 ng/mL, the “Tmax of hydromorphone released from the conjugate” value (“Tmax of hydromorphone released” below) [4] was 15 min and the “hydromorphone plasma concentrations compared to unconjugated hydromorphone” value [4, 5] was “comparable”.

For `CN1CCC23c4c5ccc(OC(=O)c6ccccc6)c4OC2C(OC(=O)c2ccccc2)=CCC3C1C5` (stereo not drawn) [3,6-di-Benzoate-HM, 3,6-di-benzoate-hydromorphone], the “AUC of hydromorphone released” value [4] was 30.1 ng·h/mL, the “Cmax of hydromorphone released” value [4] was 11.3 ng/mL and the “Tmax of hydromorphone released” value [4] was 15 min. The “hydromorphone plasma concentrations compared to unconjugated hydromorphone” value [4, 5] was “lower at all time points”.

For `CN1CCC23c4c5ccc(OC(=O)c6ccccc6)c4OC2C(=O)CCC3C1C5` (stereo not drawn) [3-Benzoate-HM, 3-benzoate-hydromorphone], the “AUC of hydromorphone released” value [4] was 41.2 ng·h/mL, the “Cmax of hydromorphone released” value [4] was 19.8 ng/mL and the “Tmax of hydromorphone released” value [4] was 30 min. The “hydromorphone plasma concentrations compared to unconjugated hydromorphone” value [4, 5] was “lower at all time points”.

With `CN1CCC23c4c5ccc(OC(=O)C=Cc6ccccc6)c4OC2C(=O)CCC3C1C5` (stereo not drawn) [3-Cinnamate-HM, 3-cinnamate-hydromorphone] the “AUC of hydromorphone released” value [4] was 25.3 ng·h/mL, the “Cmax of hydromorphone released” value [4] was 28.3 ng/mL and the “Tmax of hydromorphone released” value [4] was 15 min. For the same compound, the “hydromorphone plasma concentrations compared to unconjugated hydromorphone” value [4, 5] was “lower at all time points”.

With `CN1CC[C@]23c4c5ccc(OC(=O)c6ccccc6Nc6ccccc6)c4OC2C(=O)CC[C@H]3[C@H]1C5` (stereo partly drawn) [3-Fenamate-HM, 3-fenamate-hydromorphone] the “AUC of hydromorphone released” value [4] was 44.6 ng·h/mL, the “Cmax of hydromorphone released” value [4] was 30.6 ng/mL and the “Tmax of hydromorphone released” value [4] was 15 min. For the same compound, the “hydromorphone plasma concentrations compared to unconjugated hydromorphone” value [4, 5] was “elevated for the first hour after oral administration and then decreased quickly”.

With `CN1CCC23c4c5ccc(OC(=O)c6ccncc6)c4OC2C(=O)CCC3C1C5` (stereo not drawn) [3-Isoniacin-HM, 3-isoniacin-hydromorphone] the “AUC of hydromorphone released” value [4] was 25.1 ng·h/mL, the “Cmax of hydromorphone released” value [4] was 18.5 ng/mL and the “Tmax of hydromorphone released” value [4] was 15 min. The “Cmax value of released hydromorphone compared to unconjugated hydromorphone” value [4, 5] was “lower”.

For `CN1CCC23c4c5ccc(OC(=O)c6ccc(O)cc6)c4OC2C(=O)CCC3C1C5` (stereo not drawn) [3-p-Salicylic-HM, 3-p-salicylic-hydromorphone], the “AUC of hydromorphone released” value [4] was 31.4 ng·h/mL, the “Cmax of hydromorphone released” value [4] was 17.2 ng/mL and the “Tmax of hydromorphone released” value [4] was 15 min. The “hydromorphone plasma concentrations compared to unconjugated hydromorphone” value [4, 5] was “lower at all time points”.

For `COc1ccc2cc(C(C)C(=O)OC3=CCC4C5Cc6ccc(O)c7c6C4(CCN5C)C3O7)ccc2c1` (stereo not drawn) [6-Naproxen-HM, 6-naproxen-hydromorphone], the “AUC of hydromorphone released” value [4] was 31.6 ng·h/mL, the “Cmax of hydromorphone released” value [4] was 19.1 ng/mL and the “Tmax of hydromorphone released” value [4] was 15 min. For the same compound, the “overall exposure after oral administration compared to the parent drug” value [4, 5] was “reduced significantly”.

For `CN1CCC23c4c5ccc(O)c4OC2C(OC(=O)c2ccccc2O)=CCC3C1C5` (stereo not drawn) [6-o-Salicylate-HM, 6-o-salicylate-hydromorphone], the “AUC of hydromorphone released” value [4] was 33.3 ng·h/mL, the “Cmax of hydromorphone released” value [4] was 14.1 ng/mL and the “Tmax of hydromorphone released” value [4] was 15 min. For the same compound, the “Cmax value of released hydromorphone compared to unconjugated hydromorphone” value [4, 5] was “lower”.

In the case of `CC(=O)Oc1ccccc1C(=O)Oc1ccc2c3c1OC1C(=O)CCC4C(C2)N(C)CCC314` (stereo not drawn) [Conjugate 3-Aspirin-HM, 3-aspirin-hydromorphone], the “AUC of hydromorphone released” value [4] was 55.9 ng·h/mL, the “Cmax of hydromorphone released” value [4] was 44.3 ng/mL and the “Tmax of hydromorphone released” value [4] was 15 min. The “hydromorphone plasma concentrations compared to unconjugated hydromorphone” value [4, 5] was “comparable”.
